The results in this text go back to publication PMC4273943 (Molecular microbiology, 2011).

For the assay, the target named is CRP homolog RC1_3788 (CgrA) (Rhodospirillum centenum, UniProt B6IXV7). The assay is described as follows: isothermal titration calorimetry. In kind it is binding.

Structures are written as SMILES. pKd: −log10 of the molar value.

`Nc1nc2c(ncn2[C@@H]2O[C@@H]3COP(=O)(O)O[C@H]3[C@H]2O)c(=O)[nH]1` [cGMP] had a pKd of 7.41.
